From ChEMBL document CHEMBL1148359, “Design, synthesis, and biological evaluation of 2,4-diamino-5-methyl-6-substituted-pyrrolo[2,3-d]pyrimidines as dihydrofolate reductase inhibitors” (J Med Chem, 2004)

Key:
[1] = target: T1, Bifunctional dihydrofolate reductase-thymidylate synthase (Toxoplasma gondii, UniProt Q07422); test: Inhibitory concentration against Dihydrofolate reductase from Toxoplasma gondii (Toxoplasma gondii)
T1 sequence (Q07422 whole entry): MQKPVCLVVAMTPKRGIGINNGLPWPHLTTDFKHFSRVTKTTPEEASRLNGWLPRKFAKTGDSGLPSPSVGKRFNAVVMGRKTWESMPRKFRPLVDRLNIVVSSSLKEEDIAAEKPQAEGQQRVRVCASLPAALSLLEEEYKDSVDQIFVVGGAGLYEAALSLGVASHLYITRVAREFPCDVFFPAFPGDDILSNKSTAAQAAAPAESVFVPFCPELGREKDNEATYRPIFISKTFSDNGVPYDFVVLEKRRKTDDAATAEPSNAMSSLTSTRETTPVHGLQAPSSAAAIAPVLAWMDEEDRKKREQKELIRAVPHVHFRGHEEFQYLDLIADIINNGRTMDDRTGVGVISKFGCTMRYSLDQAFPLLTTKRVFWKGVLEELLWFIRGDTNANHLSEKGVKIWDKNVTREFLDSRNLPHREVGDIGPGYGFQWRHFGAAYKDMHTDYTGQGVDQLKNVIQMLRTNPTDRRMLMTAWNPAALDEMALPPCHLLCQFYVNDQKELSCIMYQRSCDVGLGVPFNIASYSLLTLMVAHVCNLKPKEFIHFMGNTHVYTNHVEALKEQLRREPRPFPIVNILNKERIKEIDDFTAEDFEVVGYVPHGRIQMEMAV

Dihydrofolate reductase [2] = target: T2, Dihydrofolate reductase (Rattus norvegicus, UniProt Q920D2); test: Inhibitory concentration against Dihydrofolate reductase from rat liver
T2 sequence (Q920D2 whole entry): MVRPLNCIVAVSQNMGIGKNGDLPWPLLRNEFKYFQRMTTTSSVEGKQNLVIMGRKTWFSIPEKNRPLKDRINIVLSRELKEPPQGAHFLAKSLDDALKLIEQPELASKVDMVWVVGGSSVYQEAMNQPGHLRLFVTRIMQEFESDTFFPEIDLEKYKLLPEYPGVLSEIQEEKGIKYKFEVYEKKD

Dihydrofolate reductase [3] = target: T3, Dihydrofolate reductase (Mycobacterium avium, UniProt O30463); test: Inhibitory concentration against Dihydrofolate reductase from Mycobacterium avium (Mycobacterium avium)
T3 sequence (O30463 whole entry): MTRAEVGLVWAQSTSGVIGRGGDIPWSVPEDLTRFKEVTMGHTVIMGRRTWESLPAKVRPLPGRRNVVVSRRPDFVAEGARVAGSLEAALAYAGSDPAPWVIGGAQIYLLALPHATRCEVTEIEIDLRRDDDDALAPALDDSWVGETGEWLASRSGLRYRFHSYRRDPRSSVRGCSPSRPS

Dihydrofolate reductase [4] = target: T4, Dihydrofolate reductase (Pneumocystis carinii, UniProt P16184); test: Inhibition of Dihydrofolate reductase from Pneumocystis carinii (Pneumocystis carinii)
T4 sequence (P16184 whole entry): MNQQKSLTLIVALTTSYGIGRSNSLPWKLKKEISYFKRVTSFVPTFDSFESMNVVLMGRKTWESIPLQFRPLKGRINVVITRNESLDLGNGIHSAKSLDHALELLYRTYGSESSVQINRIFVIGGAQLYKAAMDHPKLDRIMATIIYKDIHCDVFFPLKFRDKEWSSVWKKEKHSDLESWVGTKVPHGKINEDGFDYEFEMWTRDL

[5] = target: T5, Dihydrofolate reductase (Pneumocystis carinii) (UniProt P16184); test: Inhibition against Dihydrofolate reductase from Pneumocystis carinii (Pneumocystis carinii) at 12 uM of compound
T5 sequence (whole entry): T4 sequence (P16184 whole entry)

[6] = Selectivity ratio (IC50 rlDHFR)/(IC50 maDHFR)
[7] = Selectivity ratio (IC50rlDHFR)/(IC50 tgDHFR)
[8] = Selectivity ratio [(IC50 rlDHFR)/(IC50 pcDHFR)

Row | Compound | IC50 [1] | IC50 (Dihydrofolate reductase [2]) | IC50 (Dihydrofolate reductase [3]) | IC50 (Dihydrofolate reductase [4]) | inhibition [5] | Selectivity ratio [6] | Selectivity ratio [7] | Selectivity ratio [8]
1 | Cc1c(Sc2ccc(Cl)cc2Cl)[nH]c2nc(N)nc(N)c12 | 20 µM | 110 µM | 19 µM | > 12 µM | 14% | 5.79 | 5.5 | –
2 | COc1cc(CC2CN=C(N)N=C2N)cc(OC)c1OC (centres undefined) | – | – | 0.3 µM | – | – | – | – | –
3 | COc1cccc(Sc2[nH]c3nc(N)nc(N)c3c2C)c1 | – | 2.06 µM | 1.37 µM | 60.2 µM | – | – | – | –
4 | COc1ccc(OC)c(Sc2[nH]c3nc(N)nc(N)c3c2C)c1 | 0.17 µM | 7.8 µM | – | – | – | – | – | –
5 | Cc1c(Sc2cccc(Cl)c2)[nH]c2nc(N)nc(N)c12 | – | 47.7 µM | 4.4 µM | – | – | – | – | –
6 | Cc1c(Sc2ccc(Cl)cc2)[nH]c2nc(N)nc(N)c12 | – | 19 µM | 4 µM | 16.7 µM | – | – | – | –
7 | COc1ccccc1Sc1[nH]c2nc(N)nc(N)c2c1C | – | 2.32 µM | 0.3 µM | 22 µM | – | – | – | –
8 | COc1ccc(Sc2[nH]c3nc(N)nc(N)c3c2C)cc1 | – | 31.3 µM | 0.6 µM | 112 µM | – | – | – | –
9 | Cc1c(Sc2cccc3ccccc23)[nH]c2nc(N)nc(N)c12 | 0.16 µM | – | 0.7 µM | – | – | 6.92 | 27.9 | 0.12
